Values quoted from earlier work in US20090099154A1, “Pharmaceutical Sustained Release Compositions and Processes Thereof” (PANACEA BIOTEC LTD., priority 2005, published 2009).

Columns and labels:
HSV-1-infected cells = HSV-1-infected cells cultured in vitro
HSV-2-infected cells = HSV-2-infected cells cultured in vitro
VZV-infected cells = VZV-infected cells cultured in vitro

In the case of Penciclovir triphosphate, the intracellular half-life (HSV-1-infected cells) is listed as 10 h, the intracellular half-life (HSV-2-infected cells) is listed as 20 h and the intracellular half-life (VZV-infected cells) is listed as 7 h.
